Results from publication PMC4303209, “A novel phosphatidylinositol 3-kinase (PI3K) inhibitor directs a potent FOXO-dependent, p53-independent cell cycle arrest phenotype characterized by the differential induction of a subset of FOXO-regulated genes” (Breast Cancer Research : BCR, 2014).
Entries after “also recorded” stand apart in the source; their conditions may differ.

Assays:
[1] = system: PI3K; assay: Kinase assay of PI3Kα, PI3Kβ, PI3Kδ, PI3Kγ and mutant PI3Kα (H1047R and E542K), PI3-kinase HTRF assay; type: biochemical; conditions: Figure S1C
Procedure: The kinase activity of PI3Kα, PI3Kβ, PI3Kδ and PI3Kγ, mutant PI3Kα (H1047R and E542K) mammalian target of rapamycin (mTOR) and DNA-PK was measured as described previously. The protein kinase assays depicted in Figure S1 in Additional file 1 and Table S2 in Additional file 2 were performed at ProQinase, GmbH [18].
(§1) Supplementary file 13058_2014_482_MOESM1_ESM.jpeg: Additional file 1: Figure S1.: Comparative analysis of ETP-45658 and PI-103. (A) Chemical structure of ETP-45658 and PI-103. (B) Physiochemical properties of ETP-45658 and PI-103, including molecular polar surface area (PSA), partition coefficient (LogP), ACD clogD and solubility at two different pH values including Lipinsky’s Rule of Five (RoF) analysis. (C) Inhibitory activity against PI3K and mTOR. The kinase activity of PI3K was measured by using the commercial PI3-kinase HTRF™ assay mTOR activity by LanthaScreen™. (D) ETP-45658 and PI-103 screen against a panel of 24 kinases. The value shown indicates kinase inhibition (percentage +/− standard deviation) at 10 μM. (E) Migration of MDA-MB231 cells in a two compartment Boyden chamber for 72 hours in the presence of DMSO, ETP-45658 or PI-103 (N = 3). (JPEG 662 KB)

[2] = system: phosphorylated serine 473 AKT; assay: Immunoblot of AKT Ser473 phosphorylation in MCF-7 or U2OS cells; type: cell-based, human
Procedure: Figure 1 Cellular response to ETP-45658. […] Seventy-two hours post treatment, MTT assays were conducted. (B) Dose- and time-dependent analysis of Ser473 phosphorylation of AKT phosphorylation by 100nM ETP-45658 or PI-103 treatment. MCF-7 or U2OS cells were treated with the indicated concentrations (μM) of ETP-45658 (or PI-103) for four hours, then total protein was extracted and immunoblotted. For nuclear FOXO analysis, nuclear protein fractions were collected four hours post ETP-45658 (or PI-103) treatment. Nuclear FOXO3a levels were measure by immunoblotting. Nuclear fractions were confirmed by probing for lamin A/C. (C) FACS profile of MCF-7 or U2OS following 100 nM ETP-45658 treatment (20,000 events scored, N = 5). (D) Heat map for the top 100 differentially expressed genes based on hierarchical clustering using Euclidean distance metric. Red and green indicate genes that induced or repressed respectively by ETP-45658 or PI-103. Black indicates no change (N = 4). […] Numbers indicate number of genes that are exclusive to that particular category.

[3] = system: MDA-MB231 cells; assay: Boyden chamber matrigel invasion assay; type: cell-based, human; conditions: 72 hours; for capacity of MDA-MB231 cells to migrate through the matrigel: Figure S1E; for cell viability in invasion assay: MDA-MB231
Procedure: Cell-invasive capacity was determined using two-compartment Boyden chamber matrigel invasion assay (BD BioCoat™ Matrigel™ Invasion Chambers, BD Biosciences 354480, BD Biosciences, San Jose, CA, USA). MDA-MB231 cells were allowed to invade for 72 hours at 37°C. All of the inserts and the liquid in each well of the companion plate were removed. 10% serum RPMI medium with 5 μM calcein was added to each and incubated for 1 hour (in darkness). Fluorescence was measured with a luminometer (Envision, PerkinElmer, Inc, Waltham, MA, USA) at 485/535 nm and the results were analyzed in Activity Base (IDBS, Guildford, UK).
as §1

[4] = system: MCF-7 breast cancer cells; assay: Quantitative real time PCR (qRT-PCR) of selected genes; type: cell-based, human
Procedure: Total RNA was extracted by using Tri-reagent (Sigma-Aldrich). Real-time PCR was performed on a CFX-96 PCR machine (BioRad) using the SsoFastSYBR™ green master mix (BioRad) and following the manufacturer’s guidelines. Data was analysed as described in [29] using the 2^-ΔΔCT methodology.
Figure 4 Genes regulated by FOXO transcription factor and validation of key differentially regulated genes. […] Gene expression in MCF-7 breast cancer cells treated at six and twelve hours with (B) 10 nM ETP-45658 or (C) 10 nM PI-103. In each graph, error bars indicate +/− standard deviation with each gene and condition evaluated in triplicate from N = 3 independent experiments. For each analysis P values are shown (<0.05 is considered significant).
Our genome-wide array and in vitro studies have elucidated that the predominant pathway activated following exposure to ETP-45658 (as well as following PI-103 treatment) was FOXO-mediated cell cycle arrest. […] To strengthen our findings further, we validated our genome-wide array results by quantitative real-time PCR (qRT-PCR). Based on our gene expression profiling data, we selected 11 differentially regulated key genes. […] In our last group, we selected the cyclin-dependent kinase inhibitor 1A (p21), which is regulated by both FOXO and p53, BCL2 binding component 3 (PUMA) and BCL2-associated X (BAX) that are regulated by p53. MCF-7 breast cancer cells were treated with ETP-45658 and six or twelve hours post treatment the total RNA was extracted. We evaluated the expression profile of each gene (normalised to GAPDH using the 2^-ΔΔCT method described in our Materials and methods section) (Figure 4B). […] This response was conserved between the MCF-7 breast cancer cell line (as we would predict based on our array studies) as well as the U2OS osteosarcoma cell line (data not shown).

[5] = system: total p53; assay: Immunoblot of total p53
Procedure: Sub-confluent cells were incubated under the conditions indicated in each figure and washed twice with phosphate-buffered saline (PBS) prior to lysis. RIPA lysis buffer was added (50 mM TrisHCl, 150 mM NaCl, 1% NP-40, 2 mM Na3VO4, 100 mM NaF, 20 mM Na4P2O7 and 1x protease inhibitor cocktail (Roche Molecular Biochemicals, Indianapolis, IN, USA). The membranes were incubated overnight for total AKT, phospho-serine-473-AKT, total p53 (DO1) (Santa Cruz Biotechnology, Dallas, TX, USA), phospho-threonine 32-FOXO3a (Merck Millipore, Darmstadt, Germany) and α-tubulin (Sigma-Aldrich). Secondary antibodies used were anti-mouse, goat or rabbit immunoglobulin G (IgG)-horseradish peroxidase (HRP) (Santa Cruz Biotechnology) as appropriate. Visualisation of bands was achieved using ChemiDoc imaging system (BioRad Laboratories Inc, Hercules, CA, USA) after membrane treatment with Ecl + (Amersham, Little Chalfont, UK).

[6] = MCF-7 and U2OS, as early as 30 minutes post treatment
[7] = osteosarcoma cells (U2OS), by three hours post treatment

## Oc1cccc(-c2nc(N3CCOCC3)c3oc4ncccc4c3n2)c1 [PI-103]
[1]
  inhibitory activity against PI3K: slightly more effective
[2]; [6]
  phosphorylated serine 473 AKT: significant decrease
[2]; [7]
  phosphorylated serine 473 AKT: unable to detect
[3]
  capacity of MDA-MB231 cells to migrate through the matrigel: inhibited
  cell viability in invasion assay: without significantly affecting cell viability
[4]
  NISCH expression (array and qRT-PCR): downregulated
[4]; 10 nM
  qRT-PCR CCND1 transcription: significantly reduced
[5]
  accumulation of total p53: neither ETP-45658 (nor PI-103) triggered an accumulation

## Cn1ncc2c(N3CCOCC3)nc(-c3cccc(O)c3)nc21 [ETP-45658]
[1]
  inhibitory activity against PI3K: potently inhibited
[2]; [6]
  phosphorylated serine 473 AKT: significant decrease
[2]; [7]
  phosphorylated serine 473 AKT: unable to detect
[3]
  capacity of MDA-MB231 cells to migrate through the matrigel: inhibited
  cell viability in invasion assay: without significantly affecting cell viability
[4]
  NISCH expression (array and qRT-PCR): significantly upregulated
  qRT-PCR induction of p53-dependent genes: no significant induction
[4]; 10 nM
  qRT-PCR CCND1 transcription: significantly reduced
[4]; 10 nM, six or twelve hours
  qRT-PCR expression of CCNG2, Cited2 and BRCA1: highly significant induction
[4]; six hours post treatment
  qRT-PCR TRAIL, FASLG or BCL2L11 transcription: no significant change
[4]; twelve hours post treatment
  qRT-PCR TRAIL, FASLG or BCL2L11 transcription: slight increase (less than two-fold)
[5]
  accumulation of total p53: little to no p53 accumulation; also recorded: neither ETP-45658 (nor PI-103) triggered an accumulation
